Assay results reported in patent publication US10131652B2, “Pyrimidinyloxy benzene derivatives as herbicides” (E. I. DU PONT DE NEMOURS AND COMPANY, priority 2014, dated 2018).

What was measured:
Assay in all cases: Test F pre-/postemergence plant response
Assay type in all cases: in vivo
Details in all cases: scale 0 to 100
[1] = system: arrowleaf sida (Sida rhombifolia)
Summary of the method: (§1)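 Visual rating versus untreated controls, 0–100 scale (0 = no effect, 100 = complete control), taken 14–21 d after treatment in greenhouse. Pre: seeds planted in silt loam, soil treated. Post: plants 2–18 cm, 1–4 leaves. Compound formulated in non-phytotoxic solvent plus surfactant.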

[2] = system: barnyardgrass (Echinochloa crus-galli)
Summary of the method: as §1

[3] = system: corn (Zea mays)
Summary of the method: as §1

[4] = system: dayflower (Virginia (VA) dayflower, Commelina virginica)
Summary of the method: as §1

[5] = system: fall panicum (Panicum dichotomiflorum)
Summary of the method: as §1

[6] = system: giant foxtail (Setaria faberii)
Summary of the method: as §1

[7] = system: green foxtail (Setaria viridis)
Summary of the method: as §1

[8] = system: johnsongrass (Sorghum halepense)
Summary of the method: as §1

[9] = system: large (Lg) crabgrass (Digitaria sanguinalis)
Summary of the method: as §1

[10] = system: morningglory (Ipomoea coccinea)
Summary of the method: as §1

[11] = system: palmer pigweed (Amaranthus palmeri)
Summary of the method: as §1

[12] = system: ragweed (common ragweed, Ambrosia elatior)
Summary of the method: as §1

[13] = system: sandbur (southern sandbur, Cenchrus echinatus)
Summary of the method: as §1

[14] = system: soybean (Glycine max)
Summary of the method: as §1

[15] = system: surinam grass (Brachiaria decumbens)
Summary of the method: as §1

[16] = system: waterhemp (common waterhemp, Amaranthus rudis)
Summary of the method: as §1

SMILES: FC(F)c1cc(-c2c(Cl)cccc2Oc2ncc(Cl)cn2)no1 [Compound 179]
- Plant response rating, Arrowleaf Sida ([1]; 16 g ai/ha Postemergence): 70
- Plant response rating, Arrowleaf Sida ([1]; 16 g ai/ha Preemergence): 0
- Plant response rating, Arrowleaf Sida ([1]; 31 g ai/ha Postemergence): 80
- Plant response rating, Arrowleaf Sida ([1]; 31 g ai/ha Preemergence): 80
- Plant response rating, Arrowleaf Sida ([1]; 62 g ai/ha Postemergence): 85
- Plant response rating, Arrowleaf Sida ([1]; 62 g ai/ha Preemergence): 80
- Plant response rating, Arrowleaf Sida ([1]; 125 g ai/ha Postemergence): 100
- Plant response rating, Arrowleaf Sida ([1]; 125 g ai/ha Preemergence): 90
- Plant response rating, Barnyardgrass ([2]; 16 g ai/ha Postemergence): 0
- Plant response rating, Barnyardgrass ([2]; 16 g ai/ha Preemergence): 0
- Plant response rating, Barnyardgrass ([2]; 31 g ai/ha Postemergence): 0
- Plant response rating, Barnyardgrass ([2]; 31 g ai/ha Preemergence): 0
- Plant response rating, Barnyardgrass ([2]; 62 g ai/ha Postemergence): 0
- Plant response rating, Barnyardgrass ([2]; 62 g ai/ha Preemergence): 0
- Plant response rating, Barnyardgrass ([2]; 125 g ai/ha Postemergence): 0
- Plant response rating, Barnyardgrass ([2]; 125 g ai/ha Preemergence): 5
- Plant response rating, Corn ([3]; 16 g ai/ha Postemergence): 5
- Plant response rating, Corn ([3]; 16 g ai/ha Preemergence): 0
- Plant response rating, Corn ([3]; 31 g ai/ha Postemergence): 0
- Plant response rating, Corn ([3]; 31 g ai/ha Preemergence): 0
- Plant response rating, Corn ([3]; 62 g ai/ha Postemergence): 10
- Plant response rating, Corn ([3]; 62 g ai/ha Preemergence): 0
- Plant response rating, Corn ([3]; 125 g ai/ha Postemergence): 15
- Plant response rating, Corn ([3]; 125 g ai/ha Preemergence): 40
- Plant response rating, Dayflower, VA ([4]; 16 g ai/ha Preemergence): 0
- Plant response rating, Dayflower, VA ([4]; 31 g ai/ha Preemergence): 0
- Plant response rating, Dayflower, VA ([4]; 62 g ai/ha Preemergence): 35
- Plant response rating, Dayflower, VA ([4]; 125 g ai/ha Preemergence): 85
- Plant response rating, Panicum, Fall ([5]; 16 g ai/ha Postemergence): 15
- Plant response rating, Panicum, Fall ([5]; 16 g ai/ha Preemergence): 0
- Plant response rating, Panicum, Fall ([5]; 31 g ai/ha Postemergence): 10
- Plant response rating, Panicum, Fall ([5]; 31 g ai/ha Preemergence): 0
- Plant response rating, Panicum, Fall ([5]; 62 g ai/ha Postemergence): 15
- Plant response rating, Panicum, Fall ([5]; 125 g ai/ha Postemergence): 10
- Plant response rating, Panicum, Fall ([5]; 125 g ai/ha Preemergence): 75
- Plant response rating, Panicum, Fall ([5]; Preemergence): 50
- Plant response rating, Foxtail, Giant ([6]; 16 g ai/ha Preemergence): 0
- Plant response rating, Foxtail, Giant ([6]; 31 g ai/ha Preemergence): 0
- Plant response rating, Foxtail, Giant ([6]; 62 g ai/ha Preemergence): 30
- Plant response rating, Foxtail, Giant ([6]; 125 g ai/ha Preemergence): 20
- Plant response rating, Foxtail, Green ([7]; 16 g ai/ha Preemergence): 0
- Plant response rating, Foxtail, Green ([7]; 31 g ai/ha Preemergence): 0
- Plant response rating, Foxtail, Green ([7]; 125 g ai/ha Preemergence): 15
- Plant response rating, Foxtail, Green ([7]; Preemergence): 0
- Plant response rating, Johnsongrass ([8]; 16 g ai/ha Preemergence): 0
- Plant response rating, Johnsongrass ([8]; 31 g ai/ha Preemergence): 0
- Plant response rating, Johnsongrass ([8]; 125 g ai/ha Preemergence): 10
- Plant response rating, Johnsongrass ([8]; Preemergence): 10
- Plant response rating, Crabgrass, Large ([9]; 16 g ai/ha Preemergence): 0
- Plant response rating, Crabgrass, Large ([9]; 31 g ai/ha Preemergence): 0
- Plant response rating, Crabgrass, Large ([9]; 62 g ai/ha Preemergence): 35
- Plant response rating, Crabgrass, Large ([9]; 125 g ai/ha Preemergence): 60
- Plant response rating, Morningglory ([10]; 16 g ai/ha Preemergence): 0
- Plant response rating, Morningglory ([10]; 31 g ai/ha Preemergence): 0
- Plant response rating, Morningglory ([10]; 125 g ai/ha Preemergence): 25
- Plant response rating, Morningglory ([10]; Preemergence): 35
- Plant response rating, Pigweed, Palmer ([11]; 16 g ai/ha Postemergence): 70
- Plant response rating, Pigweed, Palmer ([11]; 16 g ai/ha Preemergence): 0
- Plant response rating, Pigweed, Palmer ([11]; 31 g ai/ha Postemergence): 90
- Plant response rating, Pigweed, Palmer ([11]; 31 g ai/ha Preemergence): 0
- Plant response rating, Pigweed, Palmer ([11]; 62 g ai/ha Postemergence): 85
- Plant response rating, Pigweed, Palmer ([11]; 125 g ai/ha Postemergence): 85
- Plant response rating, Pigweed, Palmer ([11]; 125 g ai/ha Preemergence): 65
- Plant response rating, Pigweed, Palmer ([11]; Preemergence): 35
- Plant response rating, Ragweed ([12]; 16 g ai/ha Postemergence): 45
- Plant response rating, Ragweed ([12]; 16 g ai/ha Preemergence): 0
- Plant response rating, Ragweed ([12]; 31 g ai/ha Postemergence): 40
- Plant response rating, Ragweed ([12]; 31 g ai/ha Preemergence): 0
- Plant response rating, Ragweed ([12]; 62 g ai/ha Postemergence): 40
- Plant response rating, Ragweed ([12]; 125 g ai/ha Postemergence): 50
- Plant response rating, Ragweed ([12]; 125 g ai/ha Preemergence): 0
- Plant response rating, Ragweed ([12]; Preemergence): 0
- Plant response rating, Sandbur ([13]; 16 g ai/ha Postemergence): 0
- Plant response rating, Sandbur ([13]; 16 g ai/ha Preemergence): 0
- Plant response rating, Sandbur ([13]; 31 g ai/ha Postemergence): 0
- Plant response rating, Sandbur ([13]; 31 g ai/ha Preemergence): 0
- Plant response rating, Sandbur ([13]; 62 g ai/ha Postemergence): 5
- Plant response rating, Sandbur ([13]; 125 g ai/ha Postemergence): 10
- Plant response rating, Sandbur ([13]; 125 g ai/ha Preemergence): 0
- Plant response rating, Sandbur ([13]; Preemergence): 0
- Plant response rating, Soybean ([14]; 16 g ai/ha Postemergence): 60
- Plant response rating, Soybean ([14]; 16 g ai/ha Preemergence): 0
- Plant response rating, Soybean ([14]; 31 g ai/ha Postemergence): 50
- Plant response rating, Soybean ([14]; 31 g ai/ha Preemergence): 0
- Plant response rating, Soybean ([14]; 62 g ai/ha Postemergence): 75
- Plant response rating, Soybean ([14]; 125 g ai/ha Postemergence): 90
- Plant response rating, Soybean ([14]; 125 g ai/ha Preemergence): 35
- Plant response rating, Soybean ([14]; Preemergence): 0
- Plant response rating, Surinam Grass ([15]; 16 g ai/ha Preemergence): 0
- Plant response rating, Surinam Grass ([15]; 31 g ai/ha Preemergence): 0
- Plant response rating, Surinam Grass ([15]; 125 g ai/ha Preemergence): 0
- Plant response rating, Surinam Grass ([15]; Preemergence): 0
- Plant response rating, Waterhemp ([16]; 16 g ai/ha Postemergence): 70
- Plant response rating, Waterhemp ([16]; 16 g ai/ha Preemergence): 95
- Plant response rating, Waterhemp ([16]; 31 g ai/ha Postemergence): 95
- Plant response rating, Waterhemp ([16]; 31 g ai/ha Preemergence): 95
- Plant response rating, Waterhemp ([16]; 62 g ai/ha Postemergence): 95
- Plant response rating, Waterhemp ([16]; 125 g ai/ha Postemergence): 100
- Plant response rating, Waterhemp ([16]; 125 g ai/ha Preemergence): 100
- Plant response rating, Waterhemp ([16]; Preemergence): 100
